Experimental data reported in US20240151711A1, “ADJUVANT FOR VACCINE DEVELOPMENT” (priority 2021, published 2024).

Assays:
tumor = conditions: intra-tumoral administration; cited from earlier work
BMDCs = assay: Stimulation of cytokine production by mRNA vaccine in BMDCs (ELISA); assay type: cell-based, mouse; conditions: 24 hours; FIG. 20
Protocol: GM-CSF/IL4-induced BMDCs were seeded into 24-well plates at a seeding density of 5×10^5 cells/well, and treated with PBS control, the TLR7 agonist imiquimod, mRNA-free vehicle control, mRNA core control, or mRNA vaccine (MVP) for 24 hours. Cell growth media were collected and IFN-b and TNF-α levels were measured with ELISA assay (FIG. 20). To determine pathways that play important roles on stimulation of cytokine production, BMDCs were induced from bone marrow cells collected from wild-type mice, Sting knockout mice, and Tlr7 knockout mice. Cells were treated with PBS control, mRNA-free vehicle control, mRNA core control, or mRNA vaccine (MVP) for 24 hours, and cell growth media were collected 24 hours later for measurement of cytokine levels.

[1] = system: BMDCs derived from wild-type mice or Sting knockout mice; assay: Identification of key adjuvant component in mRNA vaccine (EDOPC replaced with DOTAP); assay type: cell-based, mouse; conditions: Vehicle or MVP prepared with EDOPC or DOTAP; FIG. 22
Source text: In order to determine the role of the charged lipid (i.e., EDOPC), positively charged 1,2-dioleoyl-3-trimethylammonium-propane (DOTAP) was used to replace EDOPC to prepare vehicle and mRNA vaccine. The resulting vehicle (Vehicle with DOTAP) and mRNA vaccine (MVP with DOTAP) were applied to compare with the parental vehicle (Vehicle with EDOPC) and mRNA vaccine (MVP with EDOPC) on stimulation of cytokine expression after BMDC treatment.

Cc1ccc2c(=O)c3cccc(CC(=O)O)c3oc2c1C [DMXAA, 5,6-dimethylxanthenone-4-acetic acid]
antitumor immunity (tumor): strong antitumor immunity

CC(C)Cn1cnc2c(N)nc3ccccc3c21 [imiquimod]
IFN-β level in growth media (BMDCs): same as potent in stimulating IFN-β expression
TNF-α level in growth media (BMDCs): same as potent in stimulating TNF-α expression

CCCCCCCC/C=C\CCCCCCCC(=O)OC[C@@H](COP(=O)(OCC)OCC[N+](C)(C)C)OC(=O)CCCCCCC/C=C\CCCCCCCC (stereo partly shown) [EDOPC, 1,2-dioleoyl-sn-glycero-3-ethylphosphocholine]
IFN-β level in growth media [1]: essential for STING-dependent stimulation
